The record followed here is ChEMBL document CHEMBL1154937, “Radiosynthesis of novel carbon-11-labeled triaryl ligands for cannabinoid-type 2 receptor” (Bioorg Med Chem Lett, 2010).

SMILES strings stand for the structures. A value given as a limit tells only on which side of the number the result lay.

For data set [1], the target named is Cannabinoid receptor 2 (Homo sapiens, UniProt P34972). Nature of the data set: Binding affinity to human CB2 receptor.
Data set [2] has as its system Brain. Nature of the data set: Drug uptake in […] brain at 8 MBq/200 mL, iv after 15 mins. Conditions: in vivo, 0.25 h. Type of data set: ADME, organism-based.
Data set [3] concerns Blood. The data set can be described thus: Drug uptake in […] blood at 8 MBq/200 mL, iv after 60 mins. Type of data set: ADME, organism-based. The following applies: in vivo, 1 h.
In data set [4] the test system is Blood. Nature of the data set: Drug uptake in […] blood at 8 MBq/200 mL, iv after 15 mins. The data set is classed as ADME, organism-based. The following applies: in vivo, 0.25 h.
Data set [5] concerns Brain. Nature of the data set: Drug uptake in […] brain at 8 MBq/200 mL, iv after 1 min. Type of data set: ADME, organism-based. The following applies: in vivo.
The subject of data set [6] is Blood. The data set can be described thus: Drug uptake in […] blood at 8 MBq/200 mL, iv after 1 min. The data set is classed as ADME, organism-based. The following applies: in vivo.
Data set [7] has as its system Brain. Nature of the data set: Drug uptake in […] brain at 8 MBq/200 mL, iv after 60 mins. The data set is classed as ADME, organism-based. Conditions: in vivo, 1 h.
Data set [8] deals with Brain. The data set can be described thus: Drug uptake in […] brain at 8 MBq/200 mL, iv after 5 mins. The data set is classed as ADME, organism-based. Conditions: in vivo.
Data set [9] relates to Brain. The data set can be described thus: Drug uptake in […] brain at 8 MBq/200 mL, iv after 30 mins. Type of data set: ADME, organism-based. Conditions: in vivo, 0.5 h.
Data set [10] has as its system Blood. Nature of the data set: Drug uptake in […] blood at 8 MBq/200 mL, iv after 5 mins. Type of data set: ADME, organism-based. The following applies: in vivo.
Data set [11] deals with Blood. The data set can be described thus: Drug uptake in […] blood at 8 MBq/200 mL, iv after 30 mins. Type of data set: ADME, organism-based. Conditions: in vivo, 0.5 h.
In data set [12] the target is T1, Cannabinoid receptor 2 (Rattus norvegicus, UniProt Q9QZN9).
T1 sequence (Q9QZN9 whole entry): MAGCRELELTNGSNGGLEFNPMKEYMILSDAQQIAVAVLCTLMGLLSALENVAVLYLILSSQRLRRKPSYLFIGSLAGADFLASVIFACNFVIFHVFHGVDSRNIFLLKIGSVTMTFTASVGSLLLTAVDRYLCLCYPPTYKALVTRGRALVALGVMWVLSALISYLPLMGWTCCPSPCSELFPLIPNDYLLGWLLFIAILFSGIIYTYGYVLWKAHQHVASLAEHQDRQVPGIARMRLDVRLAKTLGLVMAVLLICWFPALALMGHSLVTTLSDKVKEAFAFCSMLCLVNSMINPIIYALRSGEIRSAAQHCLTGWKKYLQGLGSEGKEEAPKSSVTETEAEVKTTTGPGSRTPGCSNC
Nature of the data set: Binding affinity to rat brain CB2 receptor.

Data set [13] addresses Cannabinoid receptor 1 (Homo sapiens, UniProt P21554). The data set can be described thus: Binding affinity to CB1 receptor.

Sequence of Cannabinoid receptor 2 (Homo sapiens, UniProt P34972) (P34972 whole entry): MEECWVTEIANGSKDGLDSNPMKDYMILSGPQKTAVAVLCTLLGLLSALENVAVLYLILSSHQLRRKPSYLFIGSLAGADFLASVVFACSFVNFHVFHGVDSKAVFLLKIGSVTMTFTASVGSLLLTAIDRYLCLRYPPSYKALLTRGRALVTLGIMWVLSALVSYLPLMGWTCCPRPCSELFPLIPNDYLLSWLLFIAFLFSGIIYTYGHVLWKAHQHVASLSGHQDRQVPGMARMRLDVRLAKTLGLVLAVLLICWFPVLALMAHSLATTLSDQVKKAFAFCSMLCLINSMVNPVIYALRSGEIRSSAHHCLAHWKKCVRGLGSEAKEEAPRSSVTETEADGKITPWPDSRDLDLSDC
Sequence of Cannabinoid receptor 1 (P21554 whole entry): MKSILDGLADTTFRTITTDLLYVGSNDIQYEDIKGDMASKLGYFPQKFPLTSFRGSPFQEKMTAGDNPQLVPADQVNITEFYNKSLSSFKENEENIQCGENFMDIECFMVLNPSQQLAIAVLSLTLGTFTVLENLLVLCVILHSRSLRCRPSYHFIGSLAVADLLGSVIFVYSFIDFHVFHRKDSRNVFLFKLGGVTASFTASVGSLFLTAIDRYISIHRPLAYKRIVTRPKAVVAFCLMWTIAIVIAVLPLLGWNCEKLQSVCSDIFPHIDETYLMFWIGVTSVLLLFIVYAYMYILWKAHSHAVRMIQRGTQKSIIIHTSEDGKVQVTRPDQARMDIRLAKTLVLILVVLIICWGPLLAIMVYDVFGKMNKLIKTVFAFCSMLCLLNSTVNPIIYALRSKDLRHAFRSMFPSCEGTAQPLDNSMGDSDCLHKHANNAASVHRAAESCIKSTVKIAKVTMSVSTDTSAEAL

The compound `COc1ccc(S(=O)(=O)c2ccc(C(C)NS(C)(=O)=O)cc2)c(S(=O)(=O)c2ccc(O[11CH3])cc2)c1` (stereo unspecified) had a Ki in [1] of 4.5 nM.
Same read-out and setting: the same measure for `CCCCOc1c(OCC[18F])ccc2cc(C(=O)NC3CCCCC3)c(=O)[nH]c12`: 35.8 nM.
In the case of `[11CH3]Oc1cc(C(O)c2cccs2)cc(O)c1-c1cc(Cl)cc(Cl)c1` (stereo unspecified), the Drug uptake in [2] was 1.77%; in data set [3], 0.37%; in data set [4] it was 0.7%; in [5], 1.94%; in data set [6], 2.2%; in data set [7], 0.45%. Moreover, the Drug uptake in data set [8] came to 2.07%; in data set [9] it was 0.96%; in [10] it was 1.18%; in [11], 0.35%.
Regarding `COc1cc(C(O)c2cccs2)cc(O[11CH3])c1-c1cc(Cl)cc(Cl)c1` (stereo unspecified), the Drug uptake in data set [2] turned out to be 1.5%; in data set [3] it was 2.27%; in data set [4] it was 2.25%; in data set [5], 1.93%; in [6] it was 3.9%; in [7], 0.65%. Also, the Drug uptake in data set [8] worked out at 1.87%; in data set [9], 1.09%; in data set [10] it was 2.12%; in [11], 2.38%. This compound also registered an inhibition constant Ki in [12] of 0.27 nM.
For the compound `[11CH3]Oc1cc(C(=O)c2cccs2)cc(O)c1-c1cc(Cl)cc(Cl)c1`, the Drug uptake in data set [2] is 1.01%; in data set [3], 0.21%; in data set [4], 0.63%; in [5], 1.54%; in data set [6], 1.56%; in data set [7], 0.18%. Moreover, the Drug uptake in data set [8] is recorded as 1.63%; in data set [9], 0.56%; in [10], 1%; in data set [11] it was 0.36%. Besides, in data set [12], the inhibition constant (Ki) came to 2.32 nM.
Turning to `CCCCOc1c(O[11CH3])ccc2cc(C(=O)NC3CCCCC3)c(=O)[nH]c12`, the Ki in [1] turned out to be 9.6 nM.
As to `COc1cc(C(=O)c2cccs2)cc(O[11CH3])c1-c1cc(Cl)cc(Cl)c1`, the Drug uptake was found to be 1.1% in data set [2]; 3.38% in [3]; 3.45% in data set [4]; 1.2% in [5]; 2.71% in data set [6]; 0.62% in data set [7]. Further, the Drug uptake in data set [8] was determined as 1.29%; in data set [9], 0.85%; in data set [10], 2.93%; in data set [11], 3.42%.
With `COc1cc(C(O)c2cccs2)cc(OC)c1-c1cc(Cl)cc(Cl)c1` (stereo unspecified), in [13], the inhibitory constant (Ki) was more than 1000 nM.
